Source: PubChem BioAssay (NCI)
Values joined by “and” are separate entries in the source; they are usually repeats but may differ in a detail not shown here. Equal values may be shown once.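 Test compounds were applied to cells in 96-well plates for 48 hours at 5 doses. The concentration for 50% growth inhibition is given as GI50. TGI: total growth inhibition.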

Experiments:
Test in all cases: NCI-60 cell line screen, 48 h
HOP-92 NSCLC = test system: HOP-92 NSCLC
OVCAR-5 ovarian = test system: OVCAR-5 ovarian
OVCAR-8 ovarian = test system: OVCAR-8 ovarian
SNB-19 CNS = test system: SNB-19 CNS
SW-620 colon = test system: SW-620 colon
MDA-MB-231 breast = test system: MDA-MB-231 breast
IGROV1 ovarian = test system: IGROV1 ovarian
UACC-257 melanoma = test system: UACC-257 melanoma
MDA-MB-435 = test system: MDA-MB-435
SF-268 CNS = test system: SF-268 CNS

SMILES	TGI (HOP-92 NSCLC)	TGI (OVCAR-5 ovarian) [µM]	TGI (OVCAR-8 ovarian) [µM]	TGI (SNB-19 CNS)	TGI (SW-620 colon) [µM]	TGI (MDA-MB-231 breast) [µM]	TGI (IGROV1 ovarian) [µM]	TGI (UACC-257 melanoma) [µM]	TGI (MDA-MB-435) [µM]	TGI (SF-268 CNS) [µM]	GI50 (IGROV1 ovarian)	GI50 (UACC-257 melanoma)
CC1(C)CCC[C@@]2(C)C1CC[C@@]1(CO)O[C@H](C3=CC(=O)OC3O)C[C@H]12 (some centres not stated)	38.2 µM	37.5	36.2	32.3 µM	22.3	36.1	42.5	35	24.6	> 55.6	–	–
O=c1c2ccc(Cl)cc2oc2c(CSc3ccccc3)cccc12	> 74.9 µM	> 100	> 100	> 86.5 µM	> 31.6	> 100	> 52	> 100	> 68.3	> 100	–	–
CC(=O)Oc1cc2c(cc1OCC(F)(F)F)[C@H]1CC[C@]3(C)[C@@H](OC(C)=O)CC[C@H]3[C@@H]1CC2=O	40.2 µM	44.5	57	> 67 µM	> 92.4	60.2	> 66.8	72.8	> 72.1	> 77.4	–	–
COc1cc2c(cc1O)NC(=O)[C@@H]1C[C@@H](O)CN1C2=O	> 100 µM	> 100	> 100	> 100 µM	> 100	> 100	> 100	> 100	> 100	> 100	–	–
Cn1c2c(c3c(=O)[nH]ncc31)Cc1ccccc1-2	69.4 µM	> 100	62.8	> 100 µM	91.2	98.2	33.7	27.1	35.1	94.2	–	–
NC(=O)CSc1nc2ccccc2c(=O)n1N	> 100 µM	> 100	> 100	> 100 µM	> 100	> 100	> 100	> 100	> 100	> 100	–	–
C/C(=N\NC(=S)NC(C)(C)C)c1nc2ncccc2[nH]1	42.9 µM	> 21.7	> 100	> 90.5 µM	> 100	> 100	50.6	> 100	> 78.4	> 31.6	–	–
CC(=O)CCC1(C(=O)OCC(C)C)CCCC1=O (configuration not stated)	> 100 µM	> 100	> 100	> 100 µM	> 100	> 100	> 100	> 100	> 100	> 100	–	–
O=C(N/N=C/c1ccccc1)c1c(F)c(F)c(F)c(F)c1F	> 100 µM	> 100	> 100	> 100 µM	> 100	> 100	> 100	> 100	> 100	> 100	–	–
Cc1ccc(C(=O)Nc2ccc(CP(=O)(O)O)cc2CP(=O)(O)O)cc1N	> 100 µM	> 100	> 100	> 100 µM	> 100	> 100	> 100	> 100	> 100	> 100	–	–
Clc1[nH]nc2ccccc12	> 100 µM	> 100	> 100	> 100 µM	> 100	> 100	> 100	> 100	> 100	> 100	–	–
CCCCCCCCCCCC1=C(O)C(=O)C(CC2=C(O)C(=O)C(CCCCCCCCCCC)=C(O)C2=O)=C(O)C1=O	55.2 µM	> 100	> 100	73.3 µM	> 100	> 100	> 100	> 100	> 100	> 100	–	–
Cc1ccc(S(=O)(=O)N/N=c2/sc3ccccc3n2C)cc1	> 100 µM	> 100	> 100	> 100 µM	> 100	> 100	> 100	> 100	> 100	> 100	–	–
O=C(/C=C/c1ccccc1)c1cc(CN2CCOCC2)c(O)c(CN2CCOCC2)c1	26.9 µM	36.2	> 100	> 100 µM	28.9	32.7	> 100	31.1	32.3	46.6	–	–
O=C(OCCN=c1c2ccccc2ccc2ccccc12)c1cc([N+](=O)[O-])cc([N+](=O)[O-])c1	> 100 µM	> 100	> 100	> 100 µM	> 100	> 100	> 100	> 100	> 100	> 100	–	–
COc1ccccc1N=Nc1c(O)ccc2ccccc12	56.3 µM and 42.5 µM	> 100	> 100	> 74.7 µM and 90.4 µM	> 100	> 100	> 100	> 100	> 100	> 100	3.93 µM and 35.4 µM	41.5 µM and > 100 µM
